# Measurements reported in patent US8173638B2 (Boehringer Ingelheim International GmbH, priority 2006, dated 2012).
# Where two headings read alike, the source gives them in different places.
# Target: T1, human CB2R (Homo sapiens, UniProt P34972)
# T1 construct: host or cells: CHO cells
# Test: CB2R mediated modulation of cAMP synthesis
# Format: cell-based
# Conditions: for Emax: 0.5 h, read-out: Agonist Efficacy (%); for agonistic activity: found through the use of the described assays (CB2 agonists), qualitative statement
# Outline: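 Forskolin (10 uM)-driven cAMP in human CB2R-expressing CHO cells, read with DiscoverX-XS kit after 30 min compound exposure at 37 °C, 1 mM IBMX, 0.25% BSA. 100% defined as forskolin cAMP relative to 1 uM CP55940 inhibition. Agonist EC50 via four-parameter logistic model.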
# [1] = CHO cells expressing human CB2R, cAMP inhibited by 1 uM CP55940 defined as 100%
# T1 sequence (P34972 whole entry): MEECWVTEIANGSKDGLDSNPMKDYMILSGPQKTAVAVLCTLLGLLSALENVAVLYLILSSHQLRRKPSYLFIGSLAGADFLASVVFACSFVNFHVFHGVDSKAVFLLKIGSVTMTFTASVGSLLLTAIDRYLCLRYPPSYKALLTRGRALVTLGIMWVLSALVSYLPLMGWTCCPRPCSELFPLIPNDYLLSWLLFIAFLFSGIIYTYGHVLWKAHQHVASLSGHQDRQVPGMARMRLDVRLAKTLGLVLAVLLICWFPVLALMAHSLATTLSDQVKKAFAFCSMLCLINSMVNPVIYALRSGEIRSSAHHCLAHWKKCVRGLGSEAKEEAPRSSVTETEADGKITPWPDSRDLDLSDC
agonistic activity,SMILES,also measured
,"CC(C)(C)c1ccc(NC(=O)N2CCCN(C(=O)CC3CCCCC3)CC2)cc1 [Compound 107, 4-(2-Cyclohexyl-acetyl)-[1,4]diazepane-1-carboxylic acid (4-tert-butyl-phenyl)-amide]",Emax [1]: 94%; EC50 (read-out: hCB2 cAMP EC50): 100 nM
agonistic activity,"O=C(CN1CCCCC1)N1CCCN(C(=O)Nc2ccc3ccccc3c2)CC1 [4-(2-Piperidin-1-yl-acetyl)-[1,4]diazepane-1-carboxylic acid naphthalen-2-ylamide]",
agonistic activity,"CC(C)(C)c1ccc(NC(=O)N2CCCN(C(=O)COc3ccccc3)CC2)cc1 [4-(2-Phenoxy-acetyl)-[1,4]diazepane-1-carboxylic acid (4-tert-butyl-phenyl)-amide]",
agonistic activity,"CC(C)c1ccc(NC(=O)N2CCCN(C(=O)C3CCCCC3)CC2)cc1 [4-Cyclohexanecarbonyl-[1,4]diazepane-1-carboxylic acid (4-isopropyl-phenyl)-amide]",
agonistic activity,"O=C(CC1CCCC1)N1CCCN(C(=O)Nc2ccc3ccccc3c2)CC1 [4-(2-Cyclopentyl-acetyl)-[1,4]diazepane-1-carboxylic acid (2-naphthyl)-amide]",
agonistic activity,"CC(C)c1ccc(NC(=O)N2CCCN(C(=O)CC3CCCC3)CC2)cc1 [4-(2-Cyclopentyl-acetyl)-[1,4]diazepane-1-carboxylic acid (4-isopropyl-phenyl)-amide]",
agonistic activity,"CC(C)c1ccc(NC(=O)N2CCCN(C(=O)c3ccccc3)CC2)cc1 [4-Benzoyl-[1,4]diazepane-1-carboxylic acid (4-isopropyl-phenyl)-amide]",
agonistic activity,"O=C(COc1ccccc1)N1CCCN(C(=O)Nc2ccc3ccccc3c2)CC1 [4-(2-Phenoxy-acetyl)-[1,4]diazepane-1-carboxylic acid naphthalen-2-ylamide]",
agonistic activity,"CS(=O)(=O)c1ccc(NC(=O)N2CCCN(C(=O)CC3CCCC3)CC2)cc1 [4-(2-Cyclopentyl-acetyl)-[1,4]diazepane-1-carboxylic acid (4-methanesulfonyl-phenyl)-amide]",
agonistic activity,"CC(C)c1ccc(NC(=O)N2CCCN(C(=O)C(C)(C)C)CC2)cc1 [4-pivaloyl-[1,4]diazepane-1-carboxylic acid (4-isopropyl-phenyl)-amide]",
,"CC(C)(C)c1cc(NC(=O)N2CCCN(C(=O)C3CCCCC3)CC2)no1 [Compound 153, 4-Cyclohexanecarbonyl-[1,4]diazepane-1-carboxylic acid (5-tert-butyl-isoxazol-3-yl)-amide]",Emax [1]: 104%; EC50 (read-out: hCB2 cAMP EC50): 3.7 nM
,"O=C(Nc1ccc2ccccc2c1)N1CCCN(C(=O)C2CCCCC2)CC1 [Compound 68, 4-Cyclohexanecarbonyl-[1,4]diazepane-1-carboxylic acid naphthalen-2-ylamide]",Emax [1]: 99%; EC50 (read-out: hCB2 cAMP EC50): 26 nM
agonistic activity,"CC(C)(C)c1cc(NC(=O)N2CCCN(C(=O)CC3CCCO3)CC2)no1 (centres unmarked) [4-(2-Tetrahydro-furan-2-yl-acetyl)-[1,4]diazepane-1-carboxylic acid (5-tert-butyl-isoxazol-3-yl)-amide]",
agonistic activity,"O=C(Nc1cc(-c2ccccc2)no1)N1CCCN(C(=O)C2CCOCC2)CC1 [4-(Tetrahydro-pyran-4-carbonyl)-[1,4]diazepane-1-carboxylic acid (3-phenyl-isoxazol-5-yl)-amide]",
agonistic activity,"C[C@@H]1CN(CC(=O)N2CCCN(C(=O)Nc3cc(C(C)(C)C)on3)CC2)C[C@H](C)O1 [4-[2-((2R,6S)-2,6-Dimethyl-morpholin-4-yl)-acetyl]-[1,4]diazepane-1-carboxylic acid (5-tert-butyl-isoxazol-3-yl)-amide]",
agonistic activity,"CCc1ccc(NC(=O)N2CCCN(C(=O)CC3CCOCC3)CC2)cc1 [4-(2-Tetrahydro-pyran-4-yl-acetyl)-[1,4]diazepane-1-carboxylic acid (4-ethyl-phenyl)-amide]",
agonistic activity,"CC(C)c1ccc(NC(=O)N2CCCN(C(=O)CC3CCCCC3)CC2)cc1 [4-(2-Cyclohexyl-acetyl)-[1,4]diazepane-1-carboxylic acid (4-isopropyl-phenyl)-amide]",
agonistic activity,"O=C(CC1CCCCC1)N1CCCN(C(=O)Nc2ccc3ccccc3c2)CC1 [4-(2-Cyclohexyl-acetyl)-[1,4]diazepane-1-carboxylic acid (2-naphthyl)-amide]",
agonistic activity,O=C(Nc1ccc(C(F)(F)F)cc1)N1CCCN(C(=O)c2ccc(C(F)(F)F)cc2)CC1,

agonistic activity,SMILES,also measured
,"CCC(C)c1ccc(NC(=O)N2CCCN(C(=O)N3CCOCC3)CC2)cc1 (centres unmarked) [Compound 218, 4-(Morpholine-4-carbonyl)-[1,4]diazepane-1-carboxylic acid (4-sec-butyl-phenyl)-amide]",Emax [1]: 82%; EC50 (read-out: hCB2 cAMP EC50): 20 nM
agonistic activity,"O=C(CCC1CCCCC1)N1CCCN(C(=O)Nc2ccc3ccccc3c2)CC1 [4-(3-Cyclohexyl-propionyl)-[1,4]diazepane-1-carboxylic acid naphthalen-2-ylamide]",
agonistic activity,"O=C(Nc1ccc(C(F)(F)F)cc1)N1CCCN(C(=O)C2CCC(F)(F)CC2)CC1 [4-(4,4-Difluoro-cyclohexanecarbonyl)-[1,4]diazepane-1-carboxylic acid (4-trifluoromethyl-phenyl)-amide]",
,"CC(C)(C)c1cc(NC(=O)N2CCCN(C(=O)N3CCC(F)(F)CC3)CC2)no1 [Compound 206, 4-(4,4-Difluoro-piperidine-1-carbonyl)-[1,4]diazepane-1-carboxylic acid (5-tert-butyl-isoxazol-3-yl)-amide]",EC50: 16 nM; Emax (CHO): 105%
,"CC(C)(C)c1cc(NC(=O)N2CCCN(C(=O)N3CCCCC3)CC2)no1 [Compound 198, 4-(Piperidine-1-carbonyl)-[1,4]diazepane-1-carboxylic acid (5-tert-butyl-isoxazol-3-yl)-amide]",EC50: 47 nM; Emax (CHO): 99%
agonistic activity,"O=C(Nc1ccc2ccccc2c1)N1CCCN(C(=O)C2CCCC2)CC1 [4-Cyclopentanecarbonyl-[1,4]diazepane-1-carboxylic acid naphthalen-2-ylamide]",
agonistic activity,"CC(C)CC(=O)N1CCCN(C(=O)Nc2cc(C(C)(C)C)on2)CC1 [4-(3-Methyl-butyryl)-[1,4]diazepane-1-carboxylic acid (5-tert-butyl-isoxazol-3-yl)-amide]",
agonistic activity,"N#Cc1ccc(NC(=O)N2CCCN(C(=O)CCC3CCCC3)CC2)cc1 [4-(3-Cyclopentyl-propionyl)-[1,4]diazepane-1-carboxylic acid (4-cyano-phenyl)-amide]",
agonistic activity,"O=C(Nc1cc(Cl)cc(Cl)c1)N1CCCN(C(=O)C2CCCCC2)CC1 [4-Cyclohexanecarbonyl-[1,4]diazepane-1-carboxylic acid (3,5-dichloro-phenyl)-amide]",
agonistic activity,"CC(C)(C)C(=O)N1CCCN(C(=O)Nc2cc(C(C)(C)C)on2)CC1 [4-(2,2-Dimethyl-propionyl)-[1,4]diazepane-1-carboxylic acid (5-tert-butyl-isoxazol-3-yl)-amide]",
,"CC(C)(C)c1cc(NC(=O)N2CCCN(C(=O)C3CCOCC3)CC2)no1 [Compound 142, 4-(Tetrahydro-pyran-4-carbonyl)-[1,4]diazepane-1-carboxylic acid (5-tert-butyl-isoxazol-3-yl)-amide]",Emax (CHO): 110%
agonistic activity,CCCCc1ccc(NC(=O)N2CCCN(C(=O)C3CCCCC3)CC2)cc1,
agonistic activity,"CCCC(O)c1ccc(NC(=O)N2CCCN(C(=O)CC3CCCC3)CC2)cc1 (centres unmarked) [4-(2-Cyclopentyl-acetyl)-[1,4]diazepane-1-carboxylic acid [4-(1-hydroxy-butyl)-phenyl]-amide]",
,"CC(C)(C)c1ccc(NC(=O)N2CCCN(C(=O)CN3CCSCC3)CC2)cc1 [Compound 121, 4-(2-Thiomorpholin-4-yl-acetyl)-[1,4]diazepane-1-carboxylic acid (4-tert-butyl-phenyl)-amide]",Emax [1]: 103%; EC50 (read-out: hCB2 cAMP EC50): 36 nM
agonistic activity,"CC1(C(=O)N2CCCN(C(=O)Nc3cc(C(C)(C)C)on3)CC2)CCCCC1 [4-(1-Methyl-cyclohexanecarbonyl)-[1,4]diazepane-1-carboxylic acid (5-tert-butyl-isoxazol-3-yl)-amide]",
agonistic activity,"COC1CCN(C(=O)N2CCCN(C(=O)Nc3cc(C(C)(C)C)no3)CC2)CC1 [4-(4-Methoxy-piperidine-1-carbonyl)-[1,4]diazepane-1-carboxylic acid (3-tert-butyl-isoxazol-5-yl)-amide]",
agonistic activity,"CC(C)(C)c1ccc(NC(=O)N2CCCN(C(=O)N3CCS(=O)(=O)CC3)CC2)cc1 [4-(1,1-Dioxo-1λ^6-thiomorpholine-4-carbonyl)-[1,4]diazepane-1-carboxylic acid (4-tert-butyl-phenyl)-amide]",
,"O=C(CC1CCCC1)N1CCCN(C(=O)Nc2ccc3ccccc3c2)CC1 [Compound 48, 4-(2-Cyclopentyl-acetyl)-[1,4]diazepane-1-carboxylic acid (2-naphthyl)-amide]",Emax [1]: 100%; EC50 (read-out: hCB2 cAMP EC50): 53 nM

SMILES,agonistic activity,also measured
"CC(C)(C)c1cc(NC(=O)N2CCCN(C(=O)C3CCNCC3)CC2)no1 [4-(Piperidine-4-carbonyl)-[1,4]diazepane-1-carboxylic acid (5-tert-butyl-isoxazol-3-yl)-amide]",agonistic activity,
"CC(C)(C)c1cc(NC(=O)N2CCCN(C(=O)C3CCCO3)CC2)no1 (centres unmarked) [4-(Tetrahydro-furan-2-carbonyl)-[1,4]diazepane-1-carboxylic acid (5-tert-butyl-isoxazol-3-yl)-amide]",agonistic activity,
